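Growth conditions: 96-well plates. Treatment: test compound, 48 hours, 5 concentrations. Analysis: linear interpolation between bracketing concentrations; unreached endpoints set to highest concentration. GI50 marks 50% less growth.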 Active and inactive are the calls of the source. Cut-off read from the data, not from the text of the source: active = GI50 up to about 1.1 µM and inactive = higher.
How the values were obtained:
Experiment in all cases: inhibition of tumour cell growth, NCI panel, 48 h
786-0 = tested on: 786-0
A549 = tested on: A549
ACHN = tested on: ACHN
BT-549 = tested on: BT-549
CAKI-1 = tested on: CAKI-1
EKVX = tested on: EKVX
HOP-62 = tested on: HOP-62
Hs-578T = tested on: Hs-578T
LOX IMVI = tested on: LOX IMVI
M14 = tested on: M14
MCF7 = tested on: MCF7
MDA-MB-231 = tested on: MDA-MB-231
MDA-MB-435 = tested on: MDA-MB-435
NCI-H226 = tested on: NCI-H226
OVCAR-4 = tested on: OVCAR-4
SF-295 = tested on: SF-295
SK-MEL-2 = tested on: SK-MEL-2
SNB-75 = tested on: SNB-75
UACC-257 = tested on: UACC-257
DU-145 = tested on: DU-145

Measured: GI50

CC(C)(CO)N1CCN(C(S)=Nc2ccccc2)CC1
inactive: 786-0 > 100 µM | A549 > 100 µM | ACHN > 100 µM | BT-549 > 100 µM | CAKI-1 > 100 µM | EKVX > 100 µM | HOP-62 > 100 µM | Hs-578T > 100 µM | LOX IMVI > 100 µM | M14 > 100 µM | MCF7 > 100 µM | MDA-MB-231 > 100 µM | MDA-MB-435 > 100 µM | NCI-H226 > 100 µM | OVCAR-4 > 100 µM | SF-295 > 100 µM | SK-MEL-2 > 100 µM | SNB-75 > 100 µM | UACC-257 > 100 µM

COCCOC(=O)c1c(C)[n+]([O-])c2cc(Cl)c(Cl)cc2[n+]1[O-]
inactive: 786-0 22.6 µM | A549 12.7 µM | ACHN 12.7 µM | BT-549 19.1 µM | CAKI-1 19 µM | DU-145 11.5 µM | EKVX 17.1 µM | HOP-62 11 µM | Hs-578T 32.7 µM | LOX IMVI 13.5 µM | M14 18.6 µM | MCF7 11.1 µM | MDA-MB-231 24.1 µM | MDA-MB-435 17.5 µM | OVCAR-4 14.4 µM | SF-295 17.1 µM | SK-MEL-2 25.3 µM | UACC-257 20.2 µM

COc1ccc(/N=N/c2c(O)ccc3ccccc23)cc1
inactive: 786-0 61.8 µM | A549 17.9 µM | ACHN 20.4 µM | BT-549 27.4 µM | CAKI-1 > 100 µM | EKVX 14.3 µM | HOP-62 13.8 µM | Hs-578T 11.2 µM | LOX IMVI 49.2 µM | M14 26.1 µM | MDA-MB-231 24.5 µM | MDA-MB-435 > 100 µM | NCI-H226 17.7 µM | OVCAR-4 15.4 µM | SF-295 12.9 µM | SK-MEL-2 35.6 µM | SNB-75 16.4 µM | UACC-257 > 100 µM

Cc1ccc(/N=N/C(=O)NNc2ccc(C)c([N+](=O)[O-])c2)cc1[N+](=O)[O-]
inactive: 786-0 28.2 µM | A549 28.8 µM | ACHN 24.8 µM | BT-549 30.8 µM | CAKI-1 18.8 µM | DU-145 25.1 µM | HOP-62 20.8 µM | LOX IMVI 17.3 µM | M14 40 µM | MCF7 23.2 µM | MDA-MB-231 36.6 µM | MDA-MB-435 36.5 µM | NCI-H226 51.9 µM | OVCAR-4 19.4 µM | SK-MEL-2 14.2 µM | SNB-75 19.6 µM | UACC-257 25.8 µM

Cc1ccc(-c2c(C#N)c(-c3ccccc3)c(C#N)c(=O)n2NS(=O)(=O)c2ccc(C)cc2)cc1
inactive: 786-0 44.6 µM | A549 34.4 µM | ACHN 33.3 µM | BT-549 70.1 µM | CAKI-1 48.4 µM | EKVX 72.1 µM | HOP-62 50.4 µM | Hs-578T > 100 µM | LOX IMVI 19.8 µM | M14 31 µM | MCF7 35.4 µM | MDA-MB-231 > 100 µM | MDA-MB-435 48.9 µM | NCI-H226 83.9 µM | OVCAR-4 45.7 µM | SF-295 24 µM | SK-MEL-2 35.7 µM | SNB-75 > 100 µM | UACC-257 56.1 µM

CC1C(OS(=O)(=O)c2ccc3nc(S)sc3c2)CC2C3(C)CCC2(C(C)C(=O)O)C(O)C13 (stereo unspecified)
inactive: 786-0 20.2 µM | A549 21.7 µM | ACHN 15.9 µM | BT-549 24.9 µM | CAKI-1 22 µM | DU-145 15.7 µM | EKVX 31.3 µM | HOP-62 29.1 µM | Hs-578T 48.1 µM | M14 32.4 µM | MCF7 27.6 µM | MDA-MB-231 21.2 µM | MDA-MB-435 17.2 µM | NCI-H226 19.8 µM | OVCAR-4 18.6 µM | SF-295 28 µM | SK-MEL-2 29.2 µM | UACC-257 75.7 µM

COC(=O)c1ccc2c(c1)CC1(C2)Cc2cc3c(c(C(=O)OC)c2C1)CCCC3 (stereo unspecified)
inactive: 786-0 64.1 µM | A549 83.9 µM | ACHN 47.8 µM | BT-549 > 10 µM | CAKI-1 28.8 µM | DU-145 > 100 µM | EKVX 60 µM | HOP-62 > 100 µM | Hs-578T > 100 µM | LOX IMVI 51.4 µM | MCF7 68.5 µM | MDA-MB-231 64.3 µM | MDA-MB-435 84.1 µM | NCI-H226 96.8 µM | OVCAR-4 50.5 µM | SF-295 50 µM | SNB-75 77.6 µM | UACC-257 48.4 µM

CCOC(=O)c1cn(CC)c(=O)n2c1nc1ccccc12
inactive: 786-0 58.5 µM | A549 58.7 µM | ACHN 55 µM | BT-549 56.9 µM | CAKI-1 57.9 µM | DU-145 45.5 µM | EKVX > 100 µM | HOP-62 > 100 µM | LOX IMVI 31.9 µM | M14 > 100 µM | MCF7 54.6 µM | MDA-MB-231 > 100 µM | MDA-MB-435 > 100 µM | NCI-H226 44.3 µM | OVCAR-4 35.3 µM | SF-295 > 100 µM | SK-MEL-2 > 100 µM | SNB-75 > 100 µM | UACC-257 > 100 µM

CC(=O)NNC1=NN(C(C)=O)C2(S1)C(=O)Nc1ccc(C)cc12 (stereo unspecified)
inactive: 786-0 84.1 µM | A549 94 µM | ACHN 34.2 µM | BT-549 47.8 µM | CAKI-1 73.6 µM | DU-145 > 100 µM | EKVX 78.9 µM | HOP-62 35.3 µM | Hs-578T 26.4 µM | LOX IMVI > 100 µM | M14 > 100 µM | MCF7 58.7 µM | MDA-MB-231 80.2 µM | MDA-MB-435 > 100 µM | NCI-H226 > 100 µM | OVCAR-4 88.1 µM | SF-295 97.9 µM | SNB-75 45.7 µM | UACC-257 > 100 µM

CC(C)(C)C1CCC2c3c([nH]c4ccccc34)C3C(=O)N(c4cc(Cl)ccc4Cl)C(=O)C3C2C1 (stereo unspecified)
inactive: 786-0 > 100 µM | A549 > 100 µM | ACHN > 100 µM | BT-549 > 100 µM | CAKI-1 > 100 µM | DU-145 > 100 µM | EKVX > 100 µM | HOP-62 > 100 µM | Hs-578T 45.5 µM | LOX IMVI 38.8 µM | M14 > 100 µM | MCF7 > 100 µM | MDA-MB-231 25.9 µM | MDA-MB-435 > 100 µM | NCI-H226 > 100 µM | SF-295 > 100 µM | SK-MEL-2 > 100 µM | UACC-257 > 100 µM

Cc1[nH]n(C2=NCCN2)c(=O)c1Cc1ccccc1
inactive: 786-0 > 100 µM | A549 > 100 µM | ACHN > 100 µM | BT-549 > 100 µM | CAKI-1 > 100 µM | EKVX > 100 µM | HOP-62 > 100 µM | Hs-578T > 100 µM | LOX IMVI > 100 µM | M14 > 100 µM | MCF7 > 100 µM | MDA-MB-231 > 100 µM | MDA-MB-435 > 100 µM | NCI-H226 > 100 µM | OVCAR-4 > 100 µM | SF-295 > 100 µM | SK-MEL-2 > 100 µM | UACC-257 > 100 µM
